Test results from ChEMBL document CHEMBL1137556, “Synthetic studies of neoclerodane diterpenes from Salvia divinorum: exploration of the 1-position” (Bioorg Med Chem Lett, 2007).

How the values were obtained:
[1] = target: Delta-type opioid receptor (Homo sapiens) (UniProt P41143)
Description: Antagonist activity at human cloned delta opioid receptor assessed as inhibition of DPDPE-stimulated [35S]GTPgammaS binding

[2] = target: T1, Kappa-type opioid receptor (Homo sapiens, UniProt P41145)
Description: Antagonist activity at human cloned kappa opioid receptor assessed as inhibition of U69,593-stimulated [35S]GTP-gamma-S binding

[3] = target: T1, Kappa-type opioid receptor; remark: listed apart in the source
Description: Antagonist activity at human cloned kappa opioid receptor assessed as inhibition of DAMGO-stimulated [35S]GTP-gamma-S binding

[4] = target: T1, Kappa-type opioid receptor; experiment: Agonist activity at human kappa opioid receptor by [35S]GTPgammaS binding assay; format: functional
[5] = target: T1, Kappa-type opioid receptor; experiment: Efficacy at human kappa opioid receptor by [35S]GTPgammaS binding assay relative to U69,593; format: functional
[6] = target: T1, Kappa-type opioid receptor; experiment: Agonist activity at human kappa opioid receptor assessed as inhibition of Galpha-16-induced calcium flux; format: functional
[7] = target: T1, Kappa-type opioid receptor; experiment: Efficacy at human kappa opioid receptor assessed as inhibition of Galpha-16-induced calcium flux relative to U69,593; format: functional

T1 sequence (P41145 whole entry): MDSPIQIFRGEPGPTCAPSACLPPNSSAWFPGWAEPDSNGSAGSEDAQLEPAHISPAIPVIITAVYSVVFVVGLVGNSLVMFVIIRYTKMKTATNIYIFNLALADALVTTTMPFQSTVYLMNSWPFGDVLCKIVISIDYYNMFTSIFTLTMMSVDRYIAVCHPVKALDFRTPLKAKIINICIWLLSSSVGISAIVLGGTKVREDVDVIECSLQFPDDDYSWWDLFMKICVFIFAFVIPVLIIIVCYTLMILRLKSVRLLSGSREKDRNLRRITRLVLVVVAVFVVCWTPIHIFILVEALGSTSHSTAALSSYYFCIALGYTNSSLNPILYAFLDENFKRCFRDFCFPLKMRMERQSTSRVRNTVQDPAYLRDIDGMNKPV
Chain of Delta-type opioid receptor (Homo sapiens) (P41143 whole entry): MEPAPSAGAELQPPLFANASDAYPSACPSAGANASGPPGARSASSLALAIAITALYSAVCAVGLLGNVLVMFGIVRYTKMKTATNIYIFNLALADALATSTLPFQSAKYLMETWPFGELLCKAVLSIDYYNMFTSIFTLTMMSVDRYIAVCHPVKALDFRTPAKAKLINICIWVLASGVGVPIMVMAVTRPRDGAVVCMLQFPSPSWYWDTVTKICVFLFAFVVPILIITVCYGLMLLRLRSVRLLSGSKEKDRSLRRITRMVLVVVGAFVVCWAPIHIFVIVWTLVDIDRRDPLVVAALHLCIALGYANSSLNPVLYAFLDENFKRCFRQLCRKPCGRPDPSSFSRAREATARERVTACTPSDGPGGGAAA

Row | SMILES | Ke [1] [nM] | Ke [2] [nM] | Ke [3] [nM] | EC50 [4] [µM] | Emax [5] [%] | EC50 [6] [µM] | Emax [7] [%]
1 | COC(=O)[C@@H]1CC(=O)C=C2[C@@]1(C)CC[C@H]1C(=O)O[C@H](c3ccoc3)C[C@]21C | 3500 | 460 | 700 |  |  |  | 
2 | COC(=O)[C@@H]1C[C@H](OC(C)=O)[C@H](OS(C)(=O)=O)[C@H]2[C@@]1(C)CC[C@H]1C(=O)O[C@H](c3ccoc3)C[C@]21C [1-ALPHA-MESYLOXYSALVINORIN A] |  |  |  | 2.7 | 95 |  | 
3 | COC(=O)[C@@H]1C[C@H](OC(=O)c2ccccc2)C=C2[C@@]1(C)CC[C@H]1C(=O)O[C@H](c3ccoc3)C[C@]21C | 2300 | 580 | 1740 |  |  |  | 
4 | COC(=O)[C@@H]1C[C@H](OC(=O)c2ccccc2)C[C@H]2[C@@]1(C)CC[C@H]1C(=O)O[C@H](c3ccoc3)C[C@]21C | 8780 | 580 | 4700 |  |  |  | 
5 | COC(=O)[C@@H]1C[C@H](OC(C)=O)C=C2[C@@]1(C)CC[C@H]1C(=O)O[C@H](c3ccoc3)C[C@]21C | 400 | 570 | 200 |  |  |  | 
6 | COC(=O)[C@@H]1C[C@H](OC(=O)c2ccccc2)[C@H](O)[C@H]2[C@@]1(C)CC[C@H]1C(=O)O[C@H](c3ccoc3)C[C@]21C | 2900 | 1050 | 1830 |  |  |  | 
7 | COC(=O)[C@@H]1C[C@H](OC(C)=O)[C@H](O)[C@H]2[C@@]1(C)CC[C@H]1C(=O)O[C@H](c3ccoc3)C[C@]21C | 1790 | 240 | 2300 |  |  |  | 
8 | COC(=O)[C@@H]1C[C@H](OC(C)=O)C[C@H]2[C@@]1(C)CC[C@H]1C(=O)O[C@H](c3ccoc3)C[C@]21C | 100 |  | 170 | 0.28 | 49 | 0.00334 | 93
